Read-outs that look alike come from different tables or passages of the source.
Experiments:
[1] = Pharmacokinetics of PEGylated protease inhibitor prodrugs in rats; format: in vivo, male Sprague-Dawley rats; parameters: AUCall / AUC: concentration or dose not given beside the values; conditions: prodrug in plasma
Description: Pharmacokinetic analysis of protease inhibitors described herein was conducted. To evaluate the pharmacokinetics of PEGylated protease inhibitor conjugates with releasable lipophilic attachments, test compounds were administered to male Sprague-Dawley rats.
At various times following test article administration, serial blood samples were collected from indwelling jugular vein catheters and transferred to micro-tubes containing 7.5 μL of 20% w/v K2EDTA as an anticoagulant. Following processing of the blood samples to plasma (10 minutes at 10000 rpm, Centrifuge Model: Kubota 3500), plasma concentrations of the test article or corresponding PEGylated molecule released from the test article was measured using LC-MS/MS methods. Pharmacokinetic parameters were estimated using noncompartmental methods.
Table 3 presents a summary of pharmacokinetic parameters of PEGylated protease inhibitor prodrugs, wherein Cmax is the maximum (peak) concentration, AUCall represents the area under the concentration-time curve from zero to time of last concentration value, T½ is half life, and MRTlast is the mean residence time to last observable concentration

[2] = Pharmacokinetics of released PEGylated protease inhibitor following P.O. administration of prodrugs in rats; format: in vivo, male Sprague-Dawley rats; parameters: AUCall Mean: concentration or dose not given beside the values; C24 Mean: unit not given here; conditions: rats (n = 4-5); for C24 Mean: concentration at 24 hours
Summary of the method: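 Prodrugs given orally to male Sprague-Dawley rats, with serial blood via jugular catheter into K2EDTA. Plasma levels of test article or released PEGylated inhibitor measured by LC-MS/MS. PK parameters from noncompartmental analysis.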

[3] = mPEG3-atazanavir in plasma after PO administration of mPEG3-ATV or of the listed prodrug
[4] = mPEG6-atazanavir in plasma after PO administration of mPEG6-ATV or of the listed prodrug
[5] = mPEG5-atazanavir in plasma after PO administration of mPEG5-ATV or of the listed prodrug

CCOC(C)OC(CN(Cc1ccc(-c2ccccn2)cc1)NC(=O)C(NC(=O)OC)C(C)(C)C)C(Cc1ccccc1)NC(=O)C(NC(=O)OCCOCCOCCOC)C(C)(C)C (mixture of isomers) [1-ethoxyethoxy-mPEG3-Atazanivir, ethoxy ethoxy mPEG3-atazanavir]
MRTlast [1]: 1.62 ± 0.350 h
t½(z) [1]: 2.01 ± 0.88 h
Cmin(24 hr) ([1]; 24 hr): 0.370 ± 0.455 ng/mL
AUCall ([1]; mean ± SD): 3950 ± 2740 ng·h/mL
Cmax ([1]; mean ± SD): 1370 ± 549 ng/mL
AUCall Mean [2, 3]: 500 ng·h/mL
Cmax Mean [2, 3]: 154 ng/mL
MRT last Mean [2, 3]: 2.35 h
Tmax* Median [2, 3]: 0.500 h

COCCOCCOCCOCCOCCOCCOC(=O)NC(C(=O)NC(Cc1ccccc1)C(CN(Cc1ccc(-c2ccccn2)cc1)NC(=O)C(NC(=O)OC)C(C)(C)C)OCOC)C(C)(C)C (stereo not drawn) [mPEG6-Atazanavir-methyl methyl ether, mPEG6-Atazanavir Methyl Methyl Ether]
MRTlast [1]: 5.12 ± 1.74 h
t½(z) [1]: 11.2 ± 7.72 h
Cmin(24 hr) ([1]; 24 hr): 3.47 ± 2.81 ng/mL
AUCall ([1]; mean ± SD): 1140 ± 312 ng·h/mL
Cmax ([1]; mean ± SD): 222 ± 73 ng/mL
AUCall Mean [2, 4]: 55.8 ng·h/mL
Cmax Mean [2, 4]: 11.3 ng/mL
MRT last Mean [2, 4]: 3.11 h
Tmax Median [2, 4]: 1.50 h

Methoxyacetate Ester-mPEG5-Atazanavir
MRTlast [1]: 5.81 ± 2.95 h
t½(z) [1]: 6.30 ± 2.06 h
AUCall ([1]; mean ± SD): 298 ± 121 ng·h/mL
Cmax ([1]; mean ± SD): 38.7 ± 13.8 ng/mL
AUCall Mean [2, 5]: 298 ng·h/mL
Cmax Mean [2, 5]: 38.7 ng/mL
MRT last Mean [2, 5]: 5.81 h
Tmax Median [2, 5]: 1.50 h

Phe-Gly-mPEG3-Atazanavir Hydrochloride
MRTlast [1]: 0.602 ± 0.164 h
t½(z) [1]: 1.24 ± 0.237 h
AUCall ([1]; mean ± SD): 6.07 ± 3.82 ng·h/mL
Cmax ([1]; mean ± SD): 7.38 ± 6.67 ng/mL
AUCall Mean [2, 3]: 69.6 ng·h/mL
Cmax Mean [2, 3]: 5.02 ng/mL
MRT last Mean [2, 3]: 12.6 h
Tmax* Median [2, 3]: 1.00 h

mPEG3-atazanavir-ethoxy-CME-Leu-Leu [mPEG-3-Atazanavir-Ethoxy-CM-Leu-Leu]
MRTlast [1]: 1.01 ± 0.095 h
t½(z) [1]: 1.21 NC^ hr
AUCall ([1]; mean ± SD): 8.27 ± 3.06 ng·h/mL
Cmax ([1]; mean ± SD): 2.95 ± 1.30 ng/mL
AUCall Mean [2, 3]: 148 ng·h/mL
Cmax Mean [2, 3]: 6.42 ng/mL
MRT last Mean [2, 3]: 16.5 h
Tmax* Median [2, 3]: 9.00 h

COCCOCCOCCOCCOCCOCCOC(=O)NC(C(=O)NC(Cc1ccccc1)C(CN(Cc1ccc(-c2ccccn2)cc1)NC(=O)C(NC(=O)OC)C(C)(C)C)OC(=O)COCCOC(=O)C(N)Cc1ccccc1)C(C)(C)C.Cl (stereo not drawn) [mPEG6-Atazanavir-CME-phenylalanine HCl]
MRTlast [1]: 0.948 ± 0.0741 h
AUCall ([1]; mean ± SD): 6.41 ± 9.53 ng·h/mL
Cmax ([1]; mean ± SD): 8.21 ± 12.1 ng/mL
AUCall Mean [2, 4]: 351 ng·h/mL
Cmax Mean [2, 4]: 12.5 ng/mL
MRT last Mean [2, 4]: 22.1 h
Tmax Median [2, 4]: 1.00 h

COCCOCCOCCOC(=O)N[C@H](C(=O)N[C@@H](Cc1ccccc1)[C@H](CN(Cc1ccc(-c2ccccn2)cc1)NC(=O)[C@@H](NC(=O)OC)C(C)(C)C)OC(=O)[C@H](Cc1ccccc1)NC(=O)[C@@H](N)CC(C)C)C(C)(C)C.Cl [Leu-Phe-mPEG3-Atazanavir, Leu-Phe-mPEG3-Atazanavir Hydrochloride]
MRT last ([1]; male, Sprague-Dawley, rat, in vivo): 3.42 ± 0.916 h
concentration at 24 hr ([1]; male, Sprague-Dawley, rat, in vivo, 24 hr, read-out: Cmin(24 hr)): 0.154 ± 0.307 ng/mL
AUC ([1]; male, Sprague-Dawley, rat, in vivo, mean ± SD): 157 ± 30.3 ng·h/mL
Cmax ([1]; male, Sprague-Dawley, rat, in vivo, mean ± SD, read-out: Cmax): 41.9 ± 7.92 ng/mL
half-life ([1]; male, Sprague-Dawley, rat, in vivo, read-out: t½(z) (converted)): 192 ± 58.9 min
C24 Mean [2, 3]: 2.35
AUCall Mean [2, 3]: 448 ng·h/mL
Cmax Mean [2, 3]: 84.9 ng/mL
MRT last Mean [2, 3]: 7.56 h
Tmax* Median [2, 3]: 2.00 h

COCCOCCOCCOCCOCCOC(=O)N[C@H](C(=O)N[C@@H](Cc1ccccc1)[C@H](CN(Cc1ccc(-c2ccccn2)cc1)NC(=O)[C@@H](NC(=O)OC)C(C)(C)C)OC(=O)[C@H](Cc1ccccc1)NC(=O)[C@@H](N)CC(C)C)C(C)(C)C.Cl [Leu-Phe-mPEG5-Atazanavir HCl, Leu-Phe-mPEG5-Atazanavir Hydrochloride]
MRTlast [1]: 7.57 ± 7.76 h
t½(z) [1]: 0.825 h
Cmin(24 hr) ([1]; 24 hr): 1.16 ± 2.31 ng/mL
AUCall ([1]; mean ± SD): 53.8 ± 34.1 ng·h/mL
Cmax ([1]; mean ± SD): 16.5 ± 14.9 ng/mL
AUCall Mean [2, 5]: 147 ng·h/mL
Cmax Mean [2, 5]: 25.6 ng/mL
MRT last Mean [2, 5]: 9.33 h
Tmax Median [2, 5]: 1.50 h

COCCOCCOCCOCCOCCOC(=O)NC(C(=O)NC(Cc1ccccc1)C(CN(Cc1ccc(-c2ccccn2)cc1)NC(=O)C(NC(=O)OC)C(C)(C)C)OC(=O)COCCOC(=O)C(N)CC(C)C)C(C)(C)C.Cl (stereo not drawn) [mPEG5-Atazanavir-CME-Leucine HCl, mPEG5-Atazanavir-CME-Leucine]
MRTlast [1]: 0.250 ± 0.000 h
AUCall ([1]; mean ± SD): 0.119 ± 0.0826 ng·h/mL
Cmax ([1]; mean ± SD): 0.45 ± 0.330 ng/mL
AUCall Mean [2, 5]: 65.6 ng·h/mL
Cmax Mean [2, 5]: 2.88 ng/mL
MRT last Mean [2, 5]: 16.5 h
Tmax Median [2, 5]: 9.00 h

COCCOCCOCCOCCOCCOCCOC(=O)NC(C(=O)NC(Cc1ccccc1)C(CN(Cc1ccc(-c2ccccn2)cc1)NC(=O)C(NC(=O)OC)C(C)(C)C)OC(=O)COCCOC(=O)C(N)CC(C)C)C(C)(C)C.Cl (stereo not drawn) [mPEG6-Atazanavir-CME-Leucine HCl, mPEG6-Atazanavir-CME-Leucine]
MRTlast [1]: 2.24 ± 2.58 h
AUCall ([1]; mean ± SD): 2.56 ± 2.89 ng·h/mL
Cmax ([1]; mean ± SD): 0.851 ± 0.730 ng/mL
AUCall Mean [2, 4]: 287 ng·h/mL
Cmax Mean [2, 4]: 8.65 ng/mL
MRT last Mean [2, 4]: 21.8 h
Tmax Median [2, 4]: 1.50 h

CCOC(=O)OC(CN(Cc1ccc(-c2ccccn2)cc1)NC(=O)C(NC(=O)OC)C(C)(C)C)C(Cc1ccccc1)NC(=O)C(NC(=O)OCCOCCOCCOC)C(C)(C)C (stereo not drawn) [mPEG3-atazanavir ethyl carbonate, mPEG3-Atazanavir Ethyl Carbonate]
MRTlast [1]: 3.12 ± 0.285 h
t½(z) [1]: 6.56 ± 5.13 h
Cmin(24 hr) ([1]; 24 hr): 2.42 ± 1.20 ng/mL
AUCall ([1]; mean ± SD): 4960 ± 442 ng·h/mL
Cmax ([1]; mean ± SD): 1190 ± 294 ng/mL
C24 Mean [2, 3]: 1.42
AUCall Mean [2, 3]: 199 ng·h/mL
Cmax Mean [2, 3]: 17.9 ng/mL
MRT last Mean [2, 3]: 15.5 h
Tmax* Median [2, 3]: 1.00 h

CCOCO[C@@H](CN(Cc1ccc(-c2ccccn2)cc1)NC(=O)[C@@H](NC(=O)OC)C(C)(C)C)[C@H](Cc1ccccc1)NC(=O)[C@@H](NC(=O)OCCOCCOCCOC)C(C)(C)C [mPEG3-Atazanavir-methyl ethyl ether, mPEG3-Atazanavir Methyl Ethyl Ether]
MRTlast [1]: 2.44 ± 0.920 h
t½(z) [1]: 9.41 ± 3.35 h
Cmin(24 hr) ([1]; 24 hr): 0.797 ± 0.260 ng/mL
AUCall ([1]; mean ± SD): 6590 ± 2150 ng·h/mL
Cmax ([1]; mean ± SD): 1600 ± 442 ng/mL
C24 Mean [2, 3]: 1.20
AUCall Mean [2, 3]: 822 ng·h/mL
Cmax Mean [2, 3]: 190 ng/mL
MRT last Mean [2, 3]: 3.29 h
Tmax* Median [2, 3]: 0.750 h

CCOC(CC)OC(CN(Cc1ccc(-c2ccccn2)cc1)NC(=O)C(NC(=O)OC)C(C)(C)C)C(Cc1ccccc1)NC(=O)C(NC(=O)OCCOCCOCCOC)C(C)(C)C (mixture of isomers) [1-ethoxypropoxy-mPEG3-Atazanivir, atazanavir-1-ethoxypropoxy-mPEG3]
MRTlast [1]: 2.29 ± 0.280 h
t½(z) [1]: 1.39 ± 0.210 h
Cmin(24 hr) ([1]; 24 hr): BLQ
AUCall ([1]; mean ± SD): 8480 ± 1700 ng·h/mL
Cmax ([1]; mean ± SD): 2060 ± 260 ng/mL
AUCall Mean [2, 3]: 849 ng·h/mL
Cmax Mean [2, 3]: 153 ng/mL
MRT last Mean [2, 3]: 3.83 h
Tmax* Median [2, 3]: 1.00 h
